The supplement of paper PMC12463676, “Small-molecule dissolution of stress granules by redox modulation benefits ALS models” (Nature Chemical Biology, 2025)

What was measured:
lipoamide = compound: NC(=O)CCCCC1CCSS1 [lipoamide]; assay: thermal stability z-score vs DMSO; higher = more thermally stabilized by treatment; conditions: HeLa, lipoamide concentration 100 µM
Protocol: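 Cellular thermal proteome profiling in HeLa cells. Cells were treated with 100 µM lipoamide for 1 h, with or without 1 mM arsenate for a further 1 h, then heated to ten temperatures (37-66.3 °C), and soluble protein was quantified by TMT mass spectrometry relative to 0.1% DMSO controls. The thermal stability score (sum of log2 fold changes minus the abundance score) was transformed to a z-score; mean of n = 3 experiments.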

potassium arsenate = compound: O=[As]([O-])(O)O.[K+] [potassium arsenate]; assay: as above; conditions: HeLa; arsenate concentration 1 mM
Protocol: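 Cellular thermal proteome profiling in HeLa cells treated with 1 mM arsenate for 1 h (DMSO pretreatment), heated to ten temperatures (37-66.3 °C). Soluble protein was quantified by TMT mass spectrometry relative to DMSO controls; the thermal stability score was transformed to a z-score; mean of n = 3 experiments.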

[1] = arsenate co-treatment: 1 mM arsenate 1 h
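Note: each temperature applied for 3 min, abundance score taken as mean log2 fold change at the two lowest temperatures, z-score obtained by mean subtraction and division by SD.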

CTSA (UniProt P10619)
thermal stability z-score (lipoamide; [1]): -0.264 | thermal stability z-score (lipoamide; arsenate co-treatment: none): -0.283 | thermal stability z-score (potassium arsenate): -0.0364

POLE (UniProt Q07864)
thermal stability z-score (lipoamide; [1]): -0.0751 | thermal stability z-score (lipoamide; arsenate co-treatment: none): -0.113 | thermal stability z-score (potassium arsenate): -0.553

CTU1 (UniProt Q7Z7A3)
thermal stability z-score (lipoamide; [1]): -0.119 | thermal stability z-score (lipoamide; arsenate co-treatment: none): -0.0524 | thermal stability z-score (potassium arsenate): -0.16

UNC13B (UniProt O14795)
thermal stability z-score (lipoamide; [1]): -0.0346 | thermal stability z-score (lipoamide; arsenate co-treatment: none): -0.119 | thermal stability z-score (potassium arsenate): -0.156

CBL (UniProt P22681)
thermal stability z-score (lipoamide; [1]): 0.255 | thermal stability z-score (lipoamide; arsenate co-treatment: none): 0.154 | thermal stability z-score (potassium arsenate): -0.368

EIF4G3 (UniProt O43432)
UniProt O43432, sequence (O43432 whole entry): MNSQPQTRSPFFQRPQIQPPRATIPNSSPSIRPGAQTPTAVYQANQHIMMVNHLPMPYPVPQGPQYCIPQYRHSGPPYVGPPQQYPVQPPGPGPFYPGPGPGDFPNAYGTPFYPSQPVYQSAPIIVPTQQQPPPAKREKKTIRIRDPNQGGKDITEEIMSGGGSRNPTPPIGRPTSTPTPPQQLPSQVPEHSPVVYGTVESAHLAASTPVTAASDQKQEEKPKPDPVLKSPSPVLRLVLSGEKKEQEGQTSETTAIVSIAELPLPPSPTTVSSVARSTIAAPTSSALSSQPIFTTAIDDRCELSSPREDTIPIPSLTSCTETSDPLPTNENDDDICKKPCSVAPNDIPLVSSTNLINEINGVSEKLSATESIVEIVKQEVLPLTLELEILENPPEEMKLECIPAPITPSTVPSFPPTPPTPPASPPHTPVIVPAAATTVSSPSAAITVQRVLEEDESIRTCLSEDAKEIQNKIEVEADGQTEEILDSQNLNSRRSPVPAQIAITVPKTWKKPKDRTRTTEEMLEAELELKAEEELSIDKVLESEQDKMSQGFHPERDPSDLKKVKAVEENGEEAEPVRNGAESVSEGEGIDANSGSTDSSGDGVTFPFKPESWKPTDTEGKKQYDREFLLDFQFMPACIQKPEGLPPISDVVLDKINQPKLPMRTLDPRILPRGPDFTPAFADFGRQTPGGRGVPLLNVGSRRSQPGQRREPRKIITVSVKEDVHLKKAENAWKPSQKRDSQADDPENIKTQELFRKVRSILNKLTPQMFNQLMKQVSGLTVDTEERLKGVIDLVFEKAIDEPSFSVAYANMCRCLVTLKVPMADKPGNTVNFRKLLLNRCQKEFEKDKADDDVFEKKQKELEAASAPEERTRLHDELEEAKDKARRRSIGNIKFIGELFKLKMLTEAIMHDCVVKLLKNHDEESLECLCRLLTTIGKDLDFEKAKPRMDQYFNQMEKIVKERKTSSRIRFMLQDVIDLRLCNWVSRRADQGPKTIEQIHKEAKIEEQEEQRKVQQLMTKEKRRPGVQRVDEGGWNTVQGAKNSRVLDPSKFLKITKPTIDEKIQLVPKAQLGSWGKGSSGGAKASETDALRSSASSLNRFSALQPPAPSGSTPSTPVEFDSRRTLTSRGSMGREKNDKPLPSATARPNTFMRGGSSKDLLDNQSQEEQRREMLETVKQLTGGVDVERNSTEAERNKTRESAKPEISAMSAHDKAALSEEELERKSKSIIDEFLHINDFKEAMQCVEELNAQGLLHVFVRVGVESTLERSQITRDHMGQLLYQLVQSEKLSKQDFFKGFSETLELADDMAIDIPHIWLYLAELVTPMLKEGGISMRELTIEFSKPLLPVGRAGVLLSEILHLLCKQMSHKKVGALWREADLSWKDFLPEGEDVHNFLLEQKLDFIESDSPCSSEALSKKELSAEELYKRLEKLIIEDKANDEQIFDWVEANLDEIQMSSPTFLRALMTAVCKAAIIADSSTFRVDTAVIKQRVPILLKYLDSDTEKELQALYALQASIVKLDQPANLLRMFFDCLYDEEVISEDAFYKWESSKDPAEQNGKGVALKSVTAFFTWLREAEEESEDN
thermal stability z-score (lipoamide; [1]): -0.341 | thermal stability z-score (lipoamide; arsenate co-treatment: none): 0.15 | thermal stability z-score (potassium arsenate): 0.0581

ARFRP1 (UniProt Q13795)
thermal stability z-score (lipoamide; [1]): 0.241 | thermal stability z-score (lipoamide; arsenate co-treatment: none): 0.279 | thermal stability z-score (potassium arsenate): -0.148

UQCRB (UniProt P14927)
UniProt P14927, sequence (P14927 whole entry): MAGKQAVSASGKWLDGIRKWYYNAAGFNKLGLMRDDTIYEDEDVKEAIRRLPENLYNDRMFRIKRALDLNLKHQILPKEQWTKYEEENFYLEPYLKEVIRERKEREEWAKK
thermal stability z-score (lipoamide; [1]): 0.896 | thermal stability z-score (lipoamide; arsenate co-treatment: none): 0.847 | thermal stability z-score (potassium arsenate): 0.208

RILPL1 (UniProt Q5EBL4)
UniProt Q5EBL4, sequence (Q5EBL4 whole entry): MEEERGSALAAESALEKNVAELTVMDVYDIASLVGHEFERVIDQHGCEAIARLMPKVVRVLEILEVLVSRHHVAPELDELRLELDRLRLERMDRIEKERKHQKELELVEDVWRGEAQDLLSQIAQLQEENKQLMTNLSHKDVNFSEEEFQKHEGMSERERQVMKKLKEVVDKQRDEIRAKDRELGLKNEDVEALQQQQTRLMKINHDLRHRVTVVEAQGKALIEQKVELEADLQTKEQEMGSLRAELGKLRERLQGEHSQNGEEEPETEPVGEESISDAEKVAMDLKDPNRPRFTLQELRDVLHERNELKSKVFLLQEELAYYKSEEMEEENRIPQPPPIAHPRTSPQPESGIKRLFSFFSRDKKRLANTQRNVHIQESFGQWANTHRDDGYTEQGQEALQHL
thermal stability z-score (lipoamide; [1]): 0.571 | thermal stability z-score (lipoamide; arsenate co-treatment: none): 0.0309 | thermal stability z-score (potassium arsenate): 1.21

SNU13 (UniProt P55769)
thermal stability z-score (lipoamide; [1]): -0.119 | thermal stability z-score (lipoamide; arsenate co-treatment: none): 0.0598 | thermal stability z-score (potassium arsenate): 1.62

SPRYD4 (UniProt Q8WW59)
thermal stability z-score (lipoamide; [1]): 2.66 | thermal stability z-score (lipoamide; arsenate co-treatment: none): 2.54 | thermal stability z-score (potassium arsenate): 1.75

RPS25 (UniProt P62851)
thermal stability z-score (lipoamide; [1]): 0.792 | thermal stability z-score (lipoamide; arsenate co-treatment: none): 0.586 | thermal stability z-score (potassium arsenate): -0.573

WDR77 (UniProt Q9BQA1)
UniProt Q9BQA1, sequence (Q9BQA1 whole entry): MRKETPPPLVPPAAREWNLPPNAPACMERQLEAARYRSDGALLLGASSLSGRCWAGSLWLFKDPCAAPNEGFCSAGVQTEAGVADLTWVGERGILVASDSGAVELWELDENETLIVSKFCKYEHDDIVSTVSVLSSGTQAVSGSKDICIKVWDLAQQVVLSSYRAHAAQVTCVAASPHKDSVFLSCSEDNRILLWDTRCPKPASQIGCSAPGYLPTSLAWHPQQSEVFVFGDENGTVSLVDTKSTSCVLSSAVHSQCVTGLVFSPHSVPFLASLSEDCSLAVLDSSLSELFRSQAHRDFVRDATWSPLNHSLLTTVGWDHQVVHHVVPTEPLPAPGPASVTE
thermal stability z-score (lipoamide; [1]): -0.484 | thermal stability z-score (lipoamide; arsenate co-treatment: none): 0.78 | thermal stability z-score (potassium arsenate): -0.717

BMP2K (UniProt Q9NSY1)
thermal stability z-score (lipoamide; [1]): -0.986 | thermal stability z-score (lipoamide; arsenate co-treatment: none): -0.217 | thermal stability z-score (potassium arsenate): 0.122

DDX17 (UniProt Q92841)
UniProt Q92841, sequence (Q92841 whole entry): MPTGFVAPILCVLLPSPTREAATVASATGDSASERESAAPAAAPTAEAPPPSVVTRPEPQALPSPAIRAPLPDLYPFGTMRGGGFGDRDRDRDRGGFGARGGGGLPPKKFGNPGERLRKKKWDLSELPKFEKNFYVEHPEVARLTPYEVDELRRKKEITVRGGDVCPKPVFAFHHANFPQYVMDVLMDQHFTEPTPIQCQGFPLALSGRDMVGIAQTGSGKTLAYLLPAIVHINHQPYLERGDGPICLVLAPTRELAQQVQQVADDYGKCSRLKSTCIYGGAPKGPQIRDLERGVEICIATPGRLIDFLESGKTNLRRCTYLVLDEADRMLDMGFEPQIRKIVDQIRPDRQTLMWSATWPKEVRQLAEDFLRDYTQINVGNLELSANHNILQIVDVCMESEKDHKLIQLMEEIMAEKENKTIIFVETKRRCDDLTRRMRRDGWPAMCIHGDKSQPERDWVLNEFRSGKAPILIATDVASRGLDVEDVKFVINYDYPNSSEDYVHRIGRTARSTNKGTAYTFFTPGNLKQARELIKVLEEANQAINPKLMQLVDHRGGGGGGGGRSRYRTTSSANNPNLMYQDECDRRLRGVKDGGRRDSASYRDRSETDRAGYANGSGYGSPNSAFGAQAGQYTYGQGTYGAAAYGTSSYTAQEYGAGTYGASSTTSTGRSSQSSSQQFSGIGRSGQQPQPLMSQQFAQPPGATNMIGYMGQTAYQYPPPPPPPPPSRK
thermal stability z-score (lipoamide; [1]): 0.121 | thermal stability z-score (lipoamide; arsenate co-treatment: none): 0.424 | thermal stability z-score (potassium arsenate): -0.776

MRPS34 (UniProt P82930)
thermal stability z-score (lipoamide; [1]): -0.835 | thermal stability z-score (lipoamide; arsenate co-treatment: none): -0.044 | thermal stability z-score (potassium arsenate): 0.427

FRMD8 (UniProt Q9BZ67)
thermal stability z-score (lipoamide; [1]): 0.263 | thermal stability z-score (lipoamide; arsenate co-treatment: none): 0.131 | thermal stability z-score (potassium arsenate): -0.172

ANKZF1 (UniProt Q9H8Y5)
thermal stability z-score (lipoamide; [1]): 0.373 | thermal stability z-score (lipoamide; arsenate co-treatment: none): 0.0149 | thermal stability z-score (potassium arsenate): 0.0789

HYOU1 (UniProt Q9Y4L1)
thermal stability z-score (lipoamide; [1]): -4.47 | thermal stability z-score (lipoamide; arsenate co-treatment: none): -3.4 | thermal stability z-score (potassium arsenate): 0.592

MTHFD1 (UniProt P11586)
thermal stability z-score (lipoamide; [1]): 0.565 | thermal stability z-score (lipoamide; arsenate co-treatment: none): 0.406 | thermal stability z-score (potassium arsenate): -0.927

EXOC8 (UniProt Q8IYI6)
thermal stability z-score (lipoamide; [1]): -0.0845 | thermal stability z-score (lipoamide; arsenate co-treatment: none): 0.0172 | thermal stability z-score (potassium arsenate): -0.106

MTM1 (UniProt Q13496)
thermal stability z-score (lipoamide; [1]): 0.198 | thermal stability z-score (lipoamide; arsenate co-treatment: none): 0.0354 | thermal stability z-score (potassium arsenate): -0.804

IP6K1 (UniProt Q92551)
UniProt Q92551, sequence (Q92551 whole entry, looked up): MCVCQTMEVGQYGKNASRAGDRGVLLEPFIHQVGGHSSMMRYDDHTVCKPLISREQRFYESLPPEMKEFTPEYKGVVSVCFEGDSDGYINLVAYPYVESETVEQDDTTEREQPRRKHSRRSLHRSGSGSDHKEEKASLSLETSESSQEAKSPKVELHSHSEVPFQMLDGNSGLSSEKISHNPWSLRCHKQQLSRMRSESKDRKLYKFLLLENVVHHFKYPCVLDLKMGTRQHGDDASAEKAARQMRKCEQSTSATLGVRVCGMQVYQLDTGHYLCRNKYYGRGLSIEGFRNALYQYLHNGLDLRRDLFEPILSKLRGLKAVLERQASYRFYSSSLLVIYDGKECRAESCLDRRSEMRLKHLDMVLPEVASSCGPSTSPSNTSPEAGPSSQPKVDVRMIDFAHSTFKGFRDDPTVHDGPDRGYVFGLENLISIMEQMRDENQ
thermal stability z-score (lipoamide; [1]): 0.327 | thermal stability z-score (lipoamide; arsenate co-treatment: none): -0.471 | thermal stability z-score (potassium arsenate): -0.179

UBE2C (UniProt O00762)
thermal stability z-score (lipoamide; [1]): 0.263 | thermal stability z-score (lipoamide; arsenate co-treatment: none): -0.139 | thermal stability z-score (potassium arsenate): 0.4

NME7 (UniProt Q9Y5B8)
UniProt Q9Y5B8, sequence (Q9Y5B8 whole entry): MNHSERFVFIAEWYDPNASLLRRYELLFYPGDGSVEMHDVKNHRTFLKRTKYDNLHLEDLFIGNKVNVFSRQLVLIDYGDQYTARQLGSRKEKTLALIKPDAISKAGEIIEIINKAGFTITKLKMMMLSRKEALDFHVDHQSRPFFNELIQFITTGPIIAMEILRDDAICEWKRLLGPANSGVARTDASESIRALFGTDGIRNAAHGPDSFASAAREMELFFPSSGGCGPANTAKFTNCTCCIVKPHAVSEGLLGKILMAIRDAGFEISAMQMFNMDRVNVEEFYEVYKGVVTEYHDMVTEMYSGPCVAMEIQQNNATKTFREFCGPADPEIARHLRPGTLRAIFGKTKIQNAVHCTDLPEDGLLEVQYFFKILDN
thermal stability z-score (lipoamide; [1]): 0.000387 | thermal stability z-score (lipoamide; arsenate co-treatment: none): 0.0484 | thermal stability z-score (potassium arsenate): -0.13

PTPN3 (UniProt P26045)
thermal stability z-score (lipoamide; [1]): -0.085 | thermal stability z-score (lipoamide; arsenate co-treatment: none): -0.294 | thermal stability z-score (potassium arsenate): -0.31

ERLEC1 (UniProt Q96DZ1)
UniProt Q96DZ1, sequence (Q96DZ1 whole entry): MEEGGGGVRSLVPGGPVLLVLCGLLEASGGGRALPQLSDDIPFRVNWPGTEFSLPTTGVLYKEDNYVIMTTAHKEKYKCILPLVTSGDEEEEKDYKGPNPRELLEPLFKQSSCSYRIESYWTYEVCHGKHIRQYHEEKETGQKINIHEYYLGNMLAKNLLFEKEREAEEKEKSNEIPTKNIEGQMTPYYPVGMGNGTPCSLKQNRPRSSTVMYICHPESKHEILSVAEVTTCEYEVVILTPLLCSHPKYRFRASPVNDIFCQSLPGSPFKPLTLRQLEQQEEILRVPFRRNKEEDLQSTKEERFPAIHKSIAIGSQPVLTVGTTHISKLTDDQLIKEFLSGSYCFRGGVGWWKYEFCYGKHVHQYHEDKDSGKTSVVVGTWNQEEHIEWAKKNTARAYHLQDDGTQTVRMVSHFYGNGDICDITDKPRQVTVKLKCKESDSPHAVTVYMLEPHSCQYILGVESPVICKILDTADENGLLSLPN
thermal stability z-score (lipoamide; [1]): -2.84 | thermal stability z-score (lipoamide; arsenate co-treatment: none): -2.07 | thermal stability z-score (potassium arsenate): 0.593

RPP25L (UniProt Q8N5L8)
UniProt Q8N5L8, sequence (Q8N5L8 whole entry): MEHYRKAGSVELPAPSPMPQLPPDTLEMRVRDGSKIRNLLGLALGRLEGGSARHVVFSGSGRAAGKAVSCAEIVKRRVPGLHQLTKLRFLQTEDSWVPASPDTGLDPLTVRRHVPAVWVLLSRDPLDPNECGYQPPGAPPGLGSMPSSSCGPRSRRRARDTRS
thermal stability z-score (lipoamide; [1]): 0.36 | thermal stability z-score (lipoamide; arsenate co-treatment: none): 0.117 | thermal stability z-score (potassium arsenate): 0.245

NPRL3 (UniProt Q12980)
thermal stability z-score (lipoamide; [1]): -0.0487 | thermal stability z-score (lipoamide; arsenate co-treatment: none): 0.0269 | thermal stability z-score (potassium arsenate): -0.104

BRAT1 (UniProt Q6PJG6)
thermal stability z-score (lipoamide; [1]): -0.267 | thermal stability z-score (lipoamide; arsenate co-treatment: none): -0.15 | thermal stability z-score (potassium arsenate): 0.562

COPS5 (UniProt Q92905)
UniProt Q92905, sequence (Q92905 whole entry, looked up): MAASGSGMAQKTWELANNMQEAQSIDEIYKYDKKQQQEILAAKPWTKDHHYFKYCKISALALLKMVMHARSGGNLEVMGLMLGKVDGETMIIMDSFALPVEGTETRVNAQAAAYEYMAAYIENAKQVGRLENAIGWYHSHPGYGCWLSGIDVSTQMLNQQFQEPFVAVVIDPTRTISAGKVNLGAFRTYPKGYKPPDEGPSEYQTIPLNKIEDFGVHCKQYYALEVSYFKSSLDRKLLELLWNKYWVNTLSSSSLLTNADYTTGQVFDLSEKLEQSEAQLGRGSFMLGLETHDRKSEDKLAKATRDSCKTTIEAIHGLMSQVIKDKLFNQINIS
thermal stability z-score (lipoamide; [1]): 0.384 | thermal stability z-score (lipoamide; arsenate co-treatment: none): -0.0535 | thermal stability z-score (potassium arsenate): 0.276

FZD6 (UniProt O60353)
thermal stability z-score (lipoamide; [1]): -1.56 | thermal stability z-score (lipoamide; arsenate co-treatment: none): -1.7 | thermal stability z-score (potassium arsenate): 0.376

RPL18 (UniProt Q07020)
thermal stability z-score (lipoamide; [1]): 0.497 | thermal stability z-score (lipoamide; arsenate co-treatment: none): -0.313 | thermal stability z-score (potassium arsenate): -0.424

CPS1 (UniProt P31327)
thermal stability z-score (lipoamide; [1]): -0.756 | thermal stability z-score (lipoamide; arsenate co-treatment: none): 0.095 | thermal stability z-score (potassium arsenate): -1.39

MTCH1 (UniProt Q9NZJ7)
thermal stability z-score (lipoamide; [1]): -0.143 | thermal stability z-score (lipoamide; arsenate co-treatment: none): -0.0871 | thermal stability z-score (potassium arsenate): 0.404
